This assay concerns Mitochondria-located protein genes. The assay is described as follows: DNA chip mRNA expression in yeast, mitochondria-located protein genes (Table 2). In kind it is cell-based, Saccharomyces cerevisiae S288C. To be noted: cells incubated two hours with the chemical substance. An outline of the steps:
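Value is the scanned fluorescence intensity ratio of exposed versus chemical-free cells. Log-phase S288C yeast in YPD at 25° C. received one toxic substance for two hours, dosed to slow growth without killing; Cy3/Cy5-labeled cDNA from oligo-dT-purified mRNA was hybridized to a whole-genome chip at 65° C.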

The record followed here is US8192962B2, “Processes for detecting toxic substances” (Daikin Industries, Ltd., priority 2001, dated 2012).

For the compound `C[S+](C)[O-]` [(15), dimethylsulfoxide], the “The level of expressed mRNA in the presence of chemical substance/The level of expressed mRNA in the absence of chemical substance” value runs as follows: (yeast gene YBR029C) 3.5; (yeast gene YBR291C) 0.5; (yeast gene YDR529C) 0.5; (yeast gene YEL039C) 0.4; (yeast gene YGR029W) 0.4; (yeast gene YGR062C) 0.5. In addition, the “The level of expressed mRNA in the presence of chemical substance/The level of expressed mRNA in the absence of chemical substance” value (yeast gene YGR076C) amounted to 0.5; the “The level of expressed mRNA in the presence of chemical substance/The level of expressed mRNA in the absence of chemical substance” value (yeast gene YIL022W) came out at 2.9; the “The level of expressed mRNA in the presence of chemical substance/The level of expressed mRNA in the absence of chemical substance” value (yeast gene YIL094C) was 0.5; the “The level of expressed mRNA in the presence of chemical substance/The level of expressed mRNA in the absence of chemical substance” value (yeast gene YJL166W) turned out to be 0.5; the “The level of expressed mRNA in the presence of chemical substance/The level of expressed mRNA in the absence of chemical substance” value (yeast gene YKL085W) was found to be 0.5; the “The level of expressed mRNA in the presence of chemical substance/The level of expressed mRNA in the absence of chemical substance” value (yeast gene YKL170W) is 0.8. For the same compound, the “The level of expressed mRNA in the presence of chemical substance/The level of expressed mRNA in the absence of chemical substance” value reads like this: (yeast gene YKL194C) 0.8; (yeast gene YKR052C) 0.5; (yeast gene YLL041C) 0.4; (yeast gene YLR295C) 0.5; (yeast gene YLR395C) 0.4; (yeast gene YML110C) 1.3. For the same compound, the “The level of expressed mRNA in the presence of chemical substance/The level of expressed mRNA in the absence of chemical substance” value by setting is: (yeast gene YML120C) 0.5; (yeast gene YOR037W) 0.9; (yeast gene YOR374W) 2.5.
